Assays:
isolated rat heart = assay: Cardiotonic effects on isolated heart (Langendorff perfusion); set-up: species or system Wistar rats
Method: Wistar rats (250-280 g) were anesthetized with chloral hydrate (360 mg/kg intraperitoneally) and heparinized with sodium heparin (1 mg) via sublingual vein. After opening the chest cavity, the hearts were quickly excised and immersed in cold Krebs-Henseleit (K-H) solution. Hearts were retrogradely perfused with 74 centimeters of water pressure via the aorta in a Langendorff apparatus with K-H solution, which was bubbled with a mixture of 95% O2 and 5% CO2. The suture fixed on cardiac apex was connected to a tension transducer which was connected to a polygraph (RM6300, Nihon Kohden, Japan) and a data acquisition workstation (MP150, BIOPAC Systems, USA) to a computer running Acknowledge (version 3.7.1).

SMILES: CC(C)(O)[C@@H]1CC[C@](C)([C@H]2[C@@H](O)C[C@@]3(C)C4C[C@H](OC5OC(CO)C(O)C(O)C5O)C5C(C)(C)[C@@H](O)CC[C@@]56C[C@@]46CC[C@]23C)O1 (stereo partly drawn) [CMG, Cycloastragenol-6-O-β-D-glucoside]
- Contractility Variation (%) (isolated rat heart; 1 × 10^−7 mol/L): 17.08 ± 7.19^++ %
- Contractility after administration (isolated rat heart; 1 × 10^−7 mol/L): 2.06 ± 0.59 g
- Contractility before administration (isolated rat heart; 1 × 10^−7 mol/L): 1.77 ± 0.52 g
- HR Variation (%) (isolated rat heart; 1 × 10^−7 mol/L): −38 ± 22^++ %
- HR after administration (isolated rat heart; 1 × 10^−7 mol/L): 92 ± 35 bpm
- HR before administration (isolated rat heart; 1 × 10^−7 mol/L): 145 ± 16 bpm
- peak derivatives of contractility Variation (%) (isolated rat heart; 1 × 10^−7 mol/L): 18 ± 6^++ %
- peak derivatives of contractility Δ T/S after administration (isolated rat heart; 1 × 10^−7 mol/L): 86 ± 13 g/s
- peak derivatives of contractility Δ T/S before administration (isolated rat heart; 1 × 10^−7 mol/L): 73 ± 11 g/s
- peak derivatives of diastolic force Variation (%) (isolated rat heart; 1 × 10^−7 mol/L): 14 ± 8^+ %
- peak derivatives of diastolic force Δ T/S after administration (isolated rat heart; 1 × 10^−7 mol/L): -51 ± 14 g/s
- peak derivatives of diastolic force Δ T/S before administration (isolated rat heart; 1 × 10^−7 mol/L): -45 ± 14 g/s
- Contractility Variation (%) (isolated rat heart; 1 × 10^−8 mol/L): 7.72 ± 8.03%
- Contractility after administration (isolated rat heart; 1 × 10^−8 mol/L): 1.97 ± 0.61 g
- Contractility before administration (isolated rat heart; 1 × 10^−8 mol/L): 1.81 ± 0.49 g
- HR Variation (%) (isolated rat heart; 1 × 10^−8 mol/L): −17 ± 18%
- HR after administration (isolated rat heart; 1 × 10^−8 mol/L): 124 ± 25 bpm
- HR before administration (isolated rat heart; 1 × 10^−8 mol/L): 156 ± 51 bpm
- peak derivatives of contractility Variation (%) (isolated rat heart; 1 × 10^−8 mol/L): 6 ± 8%
- peak derivatives of contractility Δ T/S after administration (isolated rat heart; 1 × 10^−8 mol/L): 76 ± 19 g/s
- peak derivatives of contractility Δ T/S before administration (isolated rat heart; 1 × 10^−8 mol/L): 71 ± 15 g/s
- peak derivatives of diastolic force Variation (%) (isolated rat heart; 1 × 10^−8 mol/L): 7 ± 9%
- peak derivatives of diastolic force Δ T/S after administration (isolated rat heart; 1 × 10^−8 mol/L): -47 ± 16 g/s
- peak derivatives of diastolic force Δ T/S before administration (isolated rat heart; 1 × 10^−8 mol/L): -44 ± 15 g/s
- Contractility Variation (%) (isolated rat heart; 3 × 10^−8 mol/L): 5.84 ± 2.92%
- Contractility after administration (isolated rat heart; 3 × 10^−8 mol/L): 1.92 ± 0.72 g
- Contractility before administration (isolated rat heart; 3 × 10^−8 mol/L): 1.83 ± 0.72 g
- HR Variation (%) (isolated rat heart; 3 × 10^−8 mol/L): −13 ± 12%
- HR after administration (isolated rat heart; 3 × 10^−8 mol/L): 128 ± 23 bpm
- HR before administration (isolated rat heart; 3 × 10^−8 mol/L): 150 ± 41 bpm
- peak derivatives of contractility Variation (%) (isolated rat heart; 3 × 10^−8 mol/L): 11 ± 9^+ %
- peak derivatives of contractility Δ T/S after administration (isolated rat heart; 3 × 10^−8 mol/L): 77 ± 16 g/s
- peak derivatives of contractility Δ T/S before administration (isolated rat heart; 3 × 10^−8 mol/L): 70 ± 16 g/s
- peak derivatives of diastolic force Variation (%) (isolated rat heart; 3 × 10^−8 mol/L): 10 ± 8%
- peak derivatives of diastolic force Δ T/S after administration (isolated rat heart; 3 × 10^−8 mol/L): -51 ± 18 g/s
- peak derivatives of diastolic force Δ T/S before administration (isolated rat heart; 3 × 10^−8 mol/L): -46 ± 15 g/s
- Contractility (isolated rat heart; isolated rat heart): increased
- Heart rate (isolated rat heart; isolated rat heart): decreased
- Peak derivatives of contractility (isolated rat heart; isolated rat heart): increased
- Peak derivatives of diastolic force (isolated rat heart; isolated rat heart): increased
- cardiotonic effect (conclusion) (isolated rat heart; isolated rat heart): exhibited cardiotonic effects
- oral absorption (Oral absorption): good oral absorption properties

SMILES: CC(C)(O)[C@@H]1CC[C@](C)([C@H]2[C@@H](O)C[C@@]3(C)[C@@H]4C[C@H](O[C@@H]5O[C@H](CO)[C@@H](O)[C@H](O)[C@H]5O)[C@H]5C(C)(C)[C@@H](O[C@@H]6OC[C@@H](O)[C@H](O)[C@H]6O)CC[C@@]56C[C@@]46CC[C@]23C)O1 [astragaloside IV, reference compound]
- Contractility Variation (%) (isolated rat heart; 1 × 10^−7 mol/L): 24.56 ± 12.44^++ %
- Contractility after administration (isolated rat heart; 1 × 10^−7 mol/L): 1.73 ± 0.42 g
- Contractility before administration (isolated rat heart; 1 × 10^−7 mol/L): 1.42 ± 0.41 g
- HR Variation (%) (isolated rat heart; 1 × 10^−7 mol/L): −24 ± 17^+ %
- HR after administration (isolated rat heart; 1 × 10^−7 mol/L): 117 ± 52 bpm
- HR before administration (isolated rat heart; 1 × 10^−7 mol/L): 151 ± 60 bpm
- peak derivatives of contractility Variation (%) (isolated rat heart; 1 × 10^−7 mol/L): 21 ± 19^+ %
- peak derivatives of contractility Δ T/S after administration (isolated rat heart; 1 × 10^−7 mol/L): 78 ± 14 g/s
- peak derivatives of contractility Δ T/S before administration (isolated rat heart; 1 × 10^−7 mol/L): 66 ± 13 g/s
- peak derivatives of diastolic force Variation (%) (isolated rat heart; 1 × 10^−7 mol/L): 15 ± 9^+ %
- peak derivatives of diastolic force Δ T/S after administration (isolated rat heart; 1 × 10^−7 mol/L): -50 ± 11 g/s
- peak derivatives of diastolic force Δ T/S before administration (isolated rat heart; 1 × 10^−7 mol/L): -44 ± 11 g/s
- Contractility Variation (%) (isolated rat heart; 1 × 10^−8 mol/L): 6.00 ± 9.25%
- Contractility after administration (isolated rat heart; 1 × 10^−8 mol/L): 1.94 ± 0.43 g
- Contractility before administration (isolated rat heart; 1 × 10^−8 mol/L): 1.83 ± 0.38 g
- HR Variation (%) (isolated rat heart; 1 × 10^−8 mol/L): −6 ± 5%
- HR after administration (isolated rat heart; 1 × 10^−8 mol/L): 144 ± 34 bpm
- HR before administration (isolated rat heart; 1 × 10^−8 mol/L): 152 ± 30 bpm
- peak derivatives of contractility Variation (%) (isolated rat heart; 1 × 10^−8 mol/L): 6 ± 15%
- peak derivatives of contractility Δ T/S after administration (isolated rat heart; 1 × 10^−8 mol/L): 81 ± 19 g/s
- peak derivatives of contractility Δ T/S before administration (isolated rat heart; 1 × 10^−8 mol/L): 76 ± 18 g/s
- peak derivatives of diastolic force Variation (%) (isolated rat heart; 1 × 10^−8 mol/L): 8 ± 8%
- peak derivatives of diastolic force Δ T/S after administration (isolated rat heart; 1 × 10^−8 mol/L): -46 ± 9 g/s
- peak derivatives of diastolic force Δ T/S before administration (isolated rat heart; 1 × 10^−8 mol/L): -43 ± 10 g/s
- Contractility Variation (%) (isolated rat heart; 3 × 10^−8 mol/L): 6.98 ± 8.82%
- Contractility after administration (isolated rat heart; 3 × 10^−8 mol/L): 1.88 ± 0.40 g
- Contractility before administration (isolated rat heart; 3 × 10^−8 mol/L): 1.78 ± 0.46 g
- HR Variation (%) (isolated rat heart; 3 × 10^−8 mol/L): −14 ± 13%
- HR after administration (isolated rat heart; 3 × 10^−8 mol/L): 145 ± 65 bpm
- HR before administration (isolated rat heart; 3 × 10^−8 mol/L): 167 ± 64 bpm
- peak derivatives of contractility Variation (%) (isolated rat heart; 3 × 10^−8 mol/L): 12 ± 7^+ %
- peak derivatives of contractility Δ T/S after administration (isolated rat heart; 3 × 10^−8 mol/L): 76 ± 18 g/s
- peak derivatives of contractility Δ T/S before administration (isolated rat heart; 3 × 10^−8 mol/L): 69 ± 19 g/s
- peak derivatives of diastolic force Variation (%) (isolated rat heart; 3 × 10^−8 mol/L): 10 ± 11%
- peak derivatives of diastolic force Δ T/S after administration (isolated rat heart; 3 × 10^−8 mol/L): -45 ± 12 g/s
- peak derivatives of diastolic force Δ T/S before administration (isolated rat heart; 3 × 10^−8 mol/L): -41 ± 12 g/s
- Contractility (isolated rat heart; isolated rat heart): increased
- Heart rate (isolated rat heart; isolated rat heart): decreased
- Peak derivatives of contractility (isolated rat heart; isolated rat heart): increased
- Peak derivatives of diastolic force (isolated rat heart; isolated rat heart): increased
